Assay results as given in the OligoGym collection.
Oligonucleotides are written 5' to 3', each unit as a sugar letter and its base; * is a phosphorothioate linkage, no mark a phosphodiester; rarer units and linkages stand in square brackets, end groups in braces. Plain capitals give the bases only. d = 2'-deoxy (DNA); r = 2'-OH (RNA)

target: UBE2S; assay: reporter assay of Huesken 2005; conditions: siRNA
Also: test concentration or dose not given here.

Substance | normalised inhibition (eCFP-eYFP dual reporter)
sense rArArCrUrArCrGrArGrGrArGrUrArUrGrCrArGdTdT / antisense rCrUrGrCrArUrArCrUrCrCrUrCrGrUrArGrUrUdCdT | 40%
sense rArArGrArUrCrUrUrCrCrArCrCrCrGrArArCrGdTdT / antisense rCrGrUrUrCrGrGrGrUrGrGrArArGrArUrCrUrUdGdG | 60.4%

target: UBE2B; assay: reporter assay of Huesken 2005; conditions: siRNA

Substance | normalised inhibition (eCFP-eYFP dual reporter)
sense rArUrUrUrCrArArGrCrGrGrUrUrArCrArArGrAdTdT / antisense rUrCrUrUrGrUrArArCrCrGrCrUrUrGrArArArUdCdC | 78.2%
sense rArUrUrUrUrCrUrGrArArGrArArUrArUrCrCrAdTdT / antisense rUrGrGrArUrArUrUrCrUrUrCrArGrArArArArUdTdC | 63.7%
sense rCrArArArUrGrUrGrUrArUrGrCrUrGrArUrGrGdTdT / antisense rCrCrArUrCrArGrCrArUrArCrArCrArUrUrUrGdGdA | 62.6%
sense rCrArGrArArUrCrGrArUrGrGrArGrUrCrCrArAdTdT / antisense rUrUrGrGrArCrUrCrCrArUrCrGrArUrUrCrUrGdAdA | 86.3%
sense rCrArGrCrArCrArGrCrUrUrUrArUrCrArGrGrAdTdT / antisense rUrCrCrUrGrArUrArArArGrCrUrGrUrGrCrUrGdCdC | 77.5%
sense rCrArGrGrArArArArCrArArArCrGrArGrArArUdTdT / antisense rArUrUrCrUrCrGrUrUrUrGrUrUrUrUrCrCrUrGdAdT | 84%
sense rCrArGrGrCrArGrCrArCrArGrCrUrUrUrArUrCdTdT / antisense rGrArUrArArArGrCrUrGrUrGrCrUrGrCrCrUrGdGdC | 75.1%
sense rCrArGrUrGrGrArArUrGrCrArGrUrUrArUrArUdTdT / antisense rArUrArUrArArCrUrGrCrArUrUrCrCrArCrUrGdCdA | 83.5%
sense rCrArGrUrGrGrCrGrCrArCrCrArUrCrUrGrArAdTdT / antisense rUrUrCrArGrArUrGrGrUrGrCrGrCrCrArCrUrGdAdC | 61.8%
sense rCrArUrArUrGrArUrGrUrArUrCrUrUrCrUrArUdTdT / antisense rArUrArGrArArGrArUrArCrArUrCrArUrArUrGdTdT | 83.9%
sense rCrCrArArArArUrGrUrUrUrCrArUrCrCrArArAdTdT / antisense rUrUrUrGrGrArUrGrArArArCrArUrUrUrUrGrGdAdT | 84.6%
sense rCrCrArCrCrArArCrUrGrUrUrArGrGrUrUrUrUdTdT / antisense rArArArArCrCrUrArArCrArGrUrUrGrGrUrGrGdTdT | 69.7%
sense rCrGrArGrArArUrArUrGrArGrArArArArGrArGdTdT / antisense rCrUrCrUrUrUrUrCrUrCrArUrArUrUrCrUrCrGdTdT | 73.5%
sense rCrGrGrCrCrArUrUrGrUrUrGrArArCrArArArGdTdT / antisense rCrUrUrUrGrUrUrCrArArCrArArUrGrGrCrCrGdAdA | 76.5%
sense rCrGrGrGrArUrUrUrCrArArGrCrGrGrUrUrArCdTdT / antisense rGrUrArArCrCrGrCrUrUrGrArArArUrCrCrCrGdCdA | 85.1%
sense rCrUrGrArArGrArArUrArUrCrCrArArArUrArAdTdT / antisense rUrUrArUrUrUrGrGrArUrArUrUrCrUrUrCrArGdAdA | 80.1%
sense rCrUrUrCrArGrArArUrCrGrArUrGrGrArGrUrCdTdT / antisense rGrArCrUrCrCrArUrCrGrArUrUrCrUrGrArArGdGdA | 72.2%
sense rGrArArCrCrGrArArUrCrCrUrArArCrArGrUrCdTdT / antisense rGrArCrUrGrUrUrArGrGrArUrUrCrGrGrUrUrCdAdT | 72.7%
sense rGrArArGrArArUrArUrCrCrArArArUrArArArCdTdT / antisense rGrUrUrUrArUrUrUrGrGrArUrArUrUrCrUrUrCdAdG | 77.7%
sense rGrArArGrGrGrArCrArCrCrUrUrUrUrGrArArGdTdT / antisense rCrUrUrCrArArArArGrGrUrGrUrCrCrCrUrUrCdTdG | 79.8%
sense rGrArArUrArUrGrArGrArArArArGrArGrUrUrUdTdT / antisense rArArArCrUrCrUrUrUrUrCrUrCrArUrArUrUrCdTdC | 78.7%
sense rGrArArUrCrGrArUrGrGrArGrUrCrCrArArCrAdTdT / antisense rUrGrUrUrGrGrArCrUrCrCrArUrCrGrArUrUrCdTdG | 84.1%
sense rGrArGrArArArArGrArGrUrUrUrCrGrGrCrCrAdTdT / antisense rUrGrGrCrCrGrArArArCrUrCrUrUrUrUrCrUrCdAdT | 82.7%
sense rGrArGrArArUrArUrGrArGrArArArArGrArGrUdTdT / antisense rArCrUrCrUrUrUrUrCrUrCrArUrArUrUrCrUrCdGdT | 83.6%
sense rGrArUrGrUrArUrCrUrUrCrUrArUrCrUrUrArAdTdT / antisense rUrUrArArGrArUrArGrArArGrArUrArCrArUrCdAdT | 84.7%

Substance | normalised inhibition (eCFP-eYFP dual reporter)
sense rGrCrArCrArGrCrUrUrUrArUrCrArGrGrArArAdTdT / antisense rUrUrUrCrCrUrGrArUrArArArGrCrUrGrUrGrCdTdG | 83.8%
sense rGrCrArCrCrArUrCrUrGrArArArArCrArArCrAdTdT / antisense rUrGrUrUrGrUrUrUrUrCrArGrArUrGrGrUrGrCdGdC | 74.2%
sense rGrCrGrCrArCrCrArUrCrUrGrArArArArCrArAdTdT / antisense rUrUrGrUrUrUrUrCrArGrArUrGrGrUrGrCrGrCdCdA | 72.8%
sense rGrCrUrGrGrArUrGrArArCrCrGrArArUrCrCrUdTdT / antisense rArGrGrArUrUrCrGrGrUrUrCrArUrCrCrArGrCdAdG | 81.5%
sense rGrCrUrUrUrArUrCrArGrGrArArArArCrArArAdTdT / antisense rUrUrUrGrUrUrUrUrCrCrUrGrArUrArArArGrCdTdG | 80.4%
sense rGrUrArCrUrUrUrUrArArArCrUrArGrUrArArUdTdT / antisense rArUrUrArCrUrArGrUrUrUrArArArArGrUrArCdCdA | 86.2%
sense rGrUrArUrGrCrUrGrArUrGrGrUrArGrCrArUrAdTdT / antisense rUrArUrGrCrUrArCrCrArUrCrArGrCrArUrArCdAdC | 75.7%
sense rGrUrGrGrArArUrGrCrArGrUrUrArUrArUrUrUdTdT / antisense rArArArUrArUrArArCrUrGrCrArUrUrCrCrArCdTdG | 84.6%
sense rGrUrUrUrCrGrGrCrCrArUrUrGrUrUrGrArArCdTdT / antisense rGrUrUrCrArArCrArArUrGrGrCrCrGrArArArCdTdC | 61.6%
sense rUrArGrArUrArUrCrCrUrUrCrArGrArArUrCrGdTdT / antisense rCrGrArUrUrCrUrGrArArGrGrArUrArUrCrUrAdAdA | 47.9%
sense rUrArGrUrArArUrArGrArArUrUrUrUrCrUrGrAdTdT / antisense rUrCrArGrArArArArUrUrCrUrArUrUrArCrUrAdGdT | 72.3%
sense rUrArUrCrCrArArArArUrGrUrUrUrCrArUrCrCdTdT / antisense rGrGrArUrGrArArArCrArUrUrUrUrGrGrArUrAdAdA | 48.2%
sense rUrArUrCrUrUrArArCrArUrCrArArUrUrCrArGdTdT / antisense rCrUrGrArArUrUrGrArUrGrUrUrArArGrArUrAdGdA | 50.5%
sense rUrArUrGrUrUrUrArGrArUrArUrCrCrUrUrCrAdTdT / antisense rUrGrArArGrGrArUrArUrCrUrArArArCrArUrAdTdG | 63.5%
sense rUrCrArGrUrCrUrCrUrGrCrUrGrGrArUrGrArAdTdT / antisense rUrUrCrArUrCrCrArGrCrArGrArGrArCrUrGrAdAdT | 62.4%
sense rUrCrCrArArArUrArArArCrCrArCrCrArArCrUdTdT / antisense rArGrUrUrGrGrUrGrGrUrUrUrArUrUrUrGrGrAdTdA | 61.8%
sense rUrCrCrUrUrCrArGrArArUrCrGrArUrGrGrArGdTdT / antisense rCrUrCrCrArUrCrGrArUrUrCrUrGrArArGrGrAdTdA | 50%
sense rUrCrUrGrArArArArCrArArCrArUrCrArUrGrCdTdT / antisense rGrCrArUrGrArUrGrUrUrGrUrUrUrUrCrArGrAdTdG | 48.3%
sense rUrGrCrArGrUrUrArUrArUrUrUrGrGrArCrCrAdTdT / antisense rUrGrGrUrCrCrArArArUrArUrArArCrUrGrCrAdTdT | 81.7%
sense rUrGrGrArUrGrArArCrCrGrArArUrCrCrUrArAdTdT / antisense rUrUrArGrGrArUrUrCrGrGrUrUrCrArUrCrCrAdGdC | 74.3%
sense rUrUrArArArCrUrArGrUrArArUrArGrArArUrUdTdT / antisense rArArUrUrCrUrArUrUrArCrUrArGrUrUrUrArAdAdA | 46.7%
sense rUrUrCrArUrCrCrArArArUrGrUrGrUrArUrGrCdTdT / antisense rGrCrArUrArCrArCrArUrUrUrGrGrArUrGrArAdAdC | 46%
sense rUrUrUrCrArArGrCrGrGrUrUrArCrArArGrArGdTdT / antisense rCrUrCrUrUrGrUrArArCrCrGrCrUrUrGrArArAdTdC | 45.5%
sense rUrUrUrCrUrGrArArGrArArUrArUrCrCrArArAdTdT / antisense rUrUrUrGrGrArUrArUrUrCrUrUrCrArGrArArAdAdT | 82.5%
sense rUrUrUrUrCrUrGrArArGrArArUrArUrCrCrArAdTdT / antisense rUrUrGrGrArUrArUrUrCrUrUrCrArGrArArArAdTdT | 85.3%
